Where two headings read alike, the source gives them in different places.
Legend:
[1] = tested on: L. major promastigotes WT; test: Alamar blue drug sensitivity assay, L. major WT; format: cell-based, Leishmania major
Experimental: (§1) Sensitivity assays of Leishmania strains to various drugs using the viability dye resazurin (Alamar Blue) (Sigma-Aldrich) were performed using a protocol adapted from [Räz et al. (1997)], as described ([Al-Salabi et al., 2003], [Gould et al., 2008]). Pentamidine and diminazene were used as non-nucleoside controls and were obtained from Sigma-Aldrich, as were many purines, pyrimidines, and analogs, with the exceptions of 2-thiouridine and 4-thiouridine (TriLink BioTechnologies, San Diego, CA); 5′-deoxyuridine, and 2′-3′-dideoxyuridine (Carbosynth, Compton, UK); 5-fluoro-2′-deoxyuridine (Fluka); and 2-thiouracil (ICN Biomedicals, Cambridge, UK). A preliminary promastigote culture was diluted to a density of 2 × 10^6 cells/ml, of which 100 μl was added to wells of 96-well plates pre-loaded with 100 μl of doubling dilutions of test compounds, resulting in a final density of 1 × 10^6 cells/ml; the dilutions were over 2 rows of the plate (23 concentrations), with the last well containing only medium and serving as the no-drug control. The plates were incubated at 25 °C for 72 h before adding the Alamar Blue dye (20 μl of 12.5 mg resazurin sodium salt (Sigma) in 100 ml phosphate buffered saline (PBS; pH 7.4)). Since Leishmania parasites metabolize the Alamar Blue dye slower than trypanosomes ([Gould et al., 2008]), the cells were incubated with the dye for a further period of 48 h before measuring the fluorescence, using a FLUOstar Optima fluorimeter (BMG Labtech) at wavelengths of 544 nm for excitation and 620 nm for emission. […] Each experiment was performed independently at least 4 times; statistical significance was determined using Student's unpaired t-test.

[2] = tested on: L. mexicana promastigotes; test: metabolomic analysis of treated L. mexicana promastigotes; format: cell-based, Leishmania mexicana; conditions: 100 μM, 8 h
Experimental: (§2) Metabolomics analysis of the Leishmania promastigotes was undertaken in triplicate, exactly as described ([Ali et al., 2013a]). Briefly, cells were grown to log phase stage, resuspended at 2 × 10^6 cells/ml in 50 ml HOMEM/FBS and incubated 8 h with 100 μM of test compound (standard conditions) before transfer to a 50-ml centrifuge tube for instantaneous cooling (dry ice/ethanol bath, 4 °C) and centrifugation (2500 rpm, 10 min, 4 °C). The pellet was lysed with 200 μl of chloroform/methanol/water (1:3:1 v/v/v) containing mass spectrometry standards, and vigorous mixing (1 h, 4 °C); cell debris was removed by centrifugation and the metabolite extracts were stored in HPLC vials at −80 °C. Control samples were prepared in parallel and included untreated cells, unused growth medium, test compound solution and extraction solvent blanks. The analysis used a hydrophilic interaction liquid chromatography (HILIC-LC) fitted with a zwitterionic ZIC-pHILIC column (Merck Sequant), coupled to high resolution mass spectrometry (MS) using a Thermo Q-Exactive, and metabolomic data outputs were analyzed using the IDEOM application (http://mzmatch.sourceforge.net/ideom.php) with default parameters ([Creek et al., 2012]) exactly as described ([Ali et al., 2013a]). The lower limit of detection was set to 500 intensity units for all reported metabolites, in order to prevent spurious identification of low level signals.
(§3) The mechanism of action of the fluorinated pyrimidines was investigated using a metabolomics approach, where promastigotes of L. mexicana and L. major were incubated for 8 h with 100 μM of either 5-FU, 5F-2′dUrd or 5F-Urd prior to metabolite extraction and mass spectrometric analysis as described ([Ali et al., 2013a], [Alkhaldi et al., 2015]). These conditions were chosen to allow for significant metabolite accumulation while not affecting cell viability or growth rate, which could broadly affect metabolite levels.

Lmaj5F2′dURes = test: microbe, parasite or virus in culture; format: cell-based, Leishmania major
Experimental: as §1

Lmaj5FURes = test: microbe, parasite or virus in culture; format: cell-based, Leishmania major
Experimental: as §1

[3] = tested on: L. mexicana promastigotes WT; test: Alamar blue drug sensitivity assay, L. mexicana WT; format: cell-based, Leishmania mexicana; conditions: for activity against L. mexicana promastigotes: at concentrations up to 5 mM
Experimental: as §1

L. major promastigotes = test: metabolomic analysis of treated L. major promastigotes; format: cell-based, Leishmania major; conditions: 100 μM, 8 h
Experimental: as §2, §3

LmajNT1 [4] = test: [3H]-thymidine uptake by L. major promastigotes; format: cell-based, Leishmania major
Experimental: (§4) Using the standard uptake technique as described for T. brucei and Leishmania species ([Wallace et al., 2002], [Al-Salabi and De Koning, 2005], [Gudin et al., 2006]), the dose- or time-dependent uptake of radiolabeled permeants was investigated.
(§5) Briefly, cells in the mid-to-late logarithmic stage of growth were harvested by centrifugation for 10 min at 1500×g. The cells were washed twice with transport assay buffer (AB: 33 mM HEPES, 98 mM NaCl, 4.6 mM KCl, 0.55 mM CaCl2, 0.07 mM MgSO4, 5.8 mM NaH2PO4, 0.3 mM MgCl2, 23 mM NaHCO3, 14 mM glucose, pH 7.3), resuspended at a density of 10^8 cells ml^−1 in AB, and left for 20–30 min at room temperature to recover from centrifugation stress. One hundred microliters of cell suspension was incubated at ambient temperature for a predetermined time with 100 μl radiolabeled test compound, in the presence or absence of unlabeled substrate or other competitive inhibitors. The incubation was terminated by the addition of ice-cold stop solution (AB containing saturating levels, usually 10 mM, of unlabeled permeant) and centrifugation through oil for 1 min at 13,000 × g. […] Radioactivity was determined by liquid scintillation counting in a Beckman LS6000 TA scintillation counter. Saturation data, inhibition data, and time courses were plotted to equations for linear or non-linear regression (hyperbolic or sigmoid curves), as appropriate. All experiments were performed in triplicate and on at least three independent occasions.
Subsequent experiments were performed with a 5 min incubation time.

Lmex5FURes = test: microbe, parasite or virus in culture; format: cell-based, Leishmania mexicana
Experimental: as §1

Lmex5F2′dURes = test: microbe, parasite or virus in culture; format: cell-based, Leishmania mexicana
Experimental: as §1

LmexNT1 [5] = format: cell-based, Leishmania mexicana; conditions: inhibition of 0.25 μM [3H]-uridine uptake in the presence of 1 mM uracil
Experimental: as §4, §5

LmexNT1 [6] = format: cell-based, Leishmania mexicana; conditions: for rate of uptake: 1 μM [3H]-thymidine
Experimental: as §4, §5
L. donovani is known to express one pyrimidine nucleoside transporter, LdNT1, which also transports adenosine ([Vasudevan et al., 1998], [De Koning et al., 2005]). In order to investigate whether this model held true for L. mexicana, the uptake of [^3H]-thymidine was studied. […] Care was taken throughout this study that whenever inhibition constants (Ki) or Michaelis-Menten constants (Km) were determined the conditions used had been verified to be well within the linear range of uptake.

LmexNT1 [7] = test: [3H]-adenosine uptake by L. mexicana promastigotes; format: cell-based, Leishmania mexicana; conditions: inhibition of 0.05 μM [3H]-adenosine uptake; read-out: Ki
Source text: Using the standard uptake technique as described for T. brucei and Leishmania species ([Wallace et al., 2002], [Al-Salabi and De Koning, 2005], [Gudin et al., 2006]), the dose- or time-dependent uptake of radiolabeled permeants was investigated. The following radiolabels and specific activities were used: [^3H]-thymidine (Perkin Elmer; 56.6 Ci/mmol); [^3H]-adenosine (American Radiolabeled Chemicals UK; 40 Ci/mmol); [^3H]-uridine (American Radiolabeled Chemicals UK; 30 Ci/mmol); [^3H]-uracil (Perkin Elmer; 24.8 Ci/mmol); [^3H]-inosine (American Radiolabeled Chemicals UK; 20 Ci/mmol); [^3H]-5-fluorouracil (Moravek; 20 Ci/mmol).
as §5
We next investigated the transport of [^3H]-adenosine in L. mexicana promastigotes, which according to the efficient inhibition of [^3H]-thymidine by adenosine, should be taken up with high affinity.

LmajUUT1 = test: [3H]-uridine uptake by L. major promastigotes, high-affinity uracil-sensitive component; format: cell-based, Leishmania major; conditions: inhibition of 0.25 μM [3H]-uridine uptake
Experimental: as §4, §5

LmajNT1 [8] = test: [3H]-uridine uptake by L. major promastigotes, low-affinity component; format: cell-based, Leishmania major; conditions: inhibition of 0.25 μM [3H]-uridine uptake
Experimental: as §4, §5

[9] = n = 3, SEM, untreated: not detected (<500)

SMILES: O=c1[nH]c(=O)n([C@@H]2O[C@H](CO)[C@@H](O)[C@H]2O)cc1F [5F-Urd, 5-Fluorouridine]
- concentrations that killed promastigotes [1]: below 20 μM
- EC50 ([1]; Leishmania major, WT promastigotes, 72 h + 48 h with dye, n ≥ 4, read-out: EC50): 18 ± 1.6 µM
- dCMP peak intensity [2, 9]: 12757 ± 1038^∗∗ arbitrary units
- dUrd peak intensity ([2]; untreated: 304 ± 155): 6439 ± 456^∗ arbitrary units
- dADP peak intensity ([2]; untreated: 1458): 9404 ± 1389^∗ arbitrary units
- dAdo peak intensity ([2]; untreated: 2585 ± 811): 8045 ± 4537 arbitrary units
- dAMP peak intensity ([2]; untreated: 10660 ± 2897): 21978 ± 1784^∗∗ arbitrary units
- dCDP peak intensity ([2]; untreated: not detected): 10404 ± 1470^∗ arbitrary units
- dCTP peak intensity ([2]; untreated: not detected): 2338 ± 428^∗ arbitrary units
- EC50 (Lmaj5F2′dURes; Leishmania major): 1.23 ± 0.34 mM
- RF (Resistance Factor = IC50 (resistant clone)/IC50 (WT)) (Lmaj5F2′dURes; Lmaj5F2′dURes vs L. major WT): 68
- EC50 (Lmaj5FURes; Leishmania major): 110 ± 17 µM
- RF (Resistance Factor = IC50 (resistant clone)/IC50 (WT)) (Lmaj5FURes; Lmaj5FURes vs L. major WT): 6.1
- EC50 ([3]; Leishmania mexicana, 72 h, WT promastigotes, 72 h + 48 h with dye, n ≥ 4, read-out: EC50): > 5 mM
- activity against L. mexicana promastigotes [3]: insensitive
- activity against L. mexicana promastigotes ([3]; listed as 5-fluorouridine): no activity
- dCMP peak intensity (L. major promastigotes; [9]): 6744 ± 3500 arbitrary units
- dUrd peak intensity (L. major promastigotes; untreated: 712 ± 105): 8145 ± 1684^∗ arbitrary units
- dCTP peak intensity (L. major promastigotes; untreated: 995 ± 109): 5477 ± 1350^∗ arbitrary units
- dAdo peak intensity (L. major promastigotes; untreated: 2992 ± 173): 11818 ± 839^∗∗ arbitrary units
- dAMP peak intensity (L. major promastigotes; untreated: 6192 ± 910): 18001 ± 2307^∗ arbitrary units
- dADP peak intensity (L. major promastigotes; untreated: not detected): 6482 ± 3260 arbitrary units
- dCDP peak intensity (L. major promastigotes; untreated: not detected): 6904 ± 384^∗∗ arbitrary units
- Ki (LmajNT1 [4]; inhibition of 0.25 μM [3H]-thymidine uptake (total LmajNT1.1 + LmajNT1.2), 5 min): 23.4 ± 1.3 µM
- EC50 (Lmex5FURes; Leishmania mexicana): > 5 mM
- RF (Resistance Factor = IC50 (resistant clone)/IC50 (WT)) (Lmex5FURes; Lmex5FURes vs L. mexicana WT): 1
- EC50 (Lmex5F2′dURes; Leishmania mexicana): > 5 mM
- RF (Resistance Factor = IC50 (resistant clone)/IC50 (WT)) (Lmex5F2′dURes; Lmex5F2′dURes vs L. mexicana WT): 1

SMILES: Cc1cn([C@H]2C[C@H](O)[C@@H](CO)O2)c(=O)[nH]c1=O [thymidine]
- Ki (LmexNT1 [5]): 9.98 ± 2.67 µM
- rate of uptake (LmexNT1 [6]; linear over 30 s (Fig. 1A)): 0.082 ± 0.005 pmol(10^7 cells)^−1s^−1
- rate of uptake (LmexNT1 [6]; over 2 min (Fig. 1B)): 0.051 ± 0.002 pmol(10^7 cells)^−1s^−1
- Vmax (LmexNT1 [6]; [3H]-thymidine): 1.53 ± 0.28 pmol(10^7 cells)^−1s^−1
- Km (LmexNT1 [6]; [3H]-thymidine, n = 3): 11.2 ± 2.4 µM
- Ki (LmexNT1 [7]): 16.5 ± 0.4 µM
- Vmax (1) (LmajNT1 [4]; [3H]-thymidine, high affinity component): 0.023 ± 0.003 pmol(10^7 cells)^−1s^−1
- Km (LmajNT1 [4]; [3H]-thymidine, high affinity component, Lineweaver-Burke plot, n = 5, read-out: Km (1)): 4.2 ± 1.09 µM
- Vmax (2) (LmajNT1 [4]; [3H]-thymidine, lower affinity component): 0.14 ± 0.03 pmol(10^7 cells)^−1s^−1
- Km (LmajNT1 [4]; n = 5, read-out: average Km from Michaelis-Menten saturation plots (single-component fit)): 30.7 ± 2.1 µM
- Km (LmajNT1 [4]; single experiment shown in Fig. 5C, read-out: apparent Km, higher affinity component): 1.26 µM
- Km (LmajNT1 [4]; single experiment shown in Fig. 5C, read-out: apparent Km, lower affinity component): 17.1 µM
- Ki (LmajUUT1): 60.9 ± 8.4 µM
- Ki (LmajNT1 [8]): 60.9 ± 8.4 µM
